Reference: ChEMBL document CHEMBL1201862, “PubChem BioAssay data set” (2004)
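Following 48 hours of exposure in 96-well plates, responses at five concentrations were used to interpolate endpoints linearly. Abbreviation: GI50, concentration required for 50% inhibition of growth.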 Calls of active or inactive are those of the source. Rule as the data show it: active = GI50 up to about 1.1 µM and inactive = higher.

Assays:
Experiment in all cases: inhibition of tumour cell growth, NCI panel, 48 h
IGROV-1 = system: IGROV-1
A498 = system: A498
U-251 = system: U-251
NCI-H23 = system: NCI-H23
SW-620 = system: SW-620
Malme-3M = system: Malme-3M
SK-MEL-2 = system: SK-MEL-2
OVCAR-5 = system: OVCAR-5
RPMI-8226 = system: RPMI-8226
NCI-H460 = system: NCI-H460
SK-MEL-5 = system: SK-MEL-5
TK-10 = system: TK-10
KM12 = system: KM12
SF-295 = system: SF-295
HT-29 = system: HT-29
RXF 393 = system: RXF 393
HOP-92 = system: HOP-92
SF-268 = system: SF-268
CAKI-1 = system: CAKI-1

SMILES	GI50 (IGROV-1)	GI50 (A498)	GI50 (U-251)	GI50 (NCI-H23)	GI50 (SW-620)	GI50 (Malme-3M)	GI50 (SK-MEL-2)	GI50 (OVCAR-5)	GI50 (RPMI-8226)	GI50 (NCI-H460)	GI50 (SK-MEL-5)	GI50 (TK-10)	GI50 (KM12)	GI50 (SF-295)	GI50 (HT-29)	GI50 (RXF 393)	GI50 (HOP-92)	GI50 (SF-268)	GI50 (CAKI-1)
N[C@@H](CCC(=O)NC(Cc1ccccc1)C(=O)NCP(=O)(O)O)C(=O)O (some centres undefined)	> 100 µM (inactive)	> 100 µM (inactive)	> 100 µM (inactive)	> 100 µM (inactive)	> 100 µM (inactive)	> 100 µM (inactive)	> 100 µM (inactive)	> 100 µM (inactive)	> 100 µM (inactive)	> 100 µM (inactive)	> 100 µM (inactive)	> 100 µM (inactive)	> 100 µM (inactive)	0.513 µM (active)	> 100 µM (inactive)				
CCOC(=O)c1cc(-c2cc(OC)c(OC)c([N+](=O)[O-])c2)c([N+](=O)[O-])n1C	5.9 µM (inactive)		4.26 µM (inactive)	6.37 µM (inactive)		8.02 µM (inactive)	> 10 µM (inactive)	> 10 µM (inactive)		3.9 µM (inactive)		> 10 µM (inactive)	4 µM (inactive)	3.42 µM (inactive)	3.18 µM (inactive)	9.59 µM (inactive)	> 10 µM (inactive)	> 10 µM (inactive)	
CC1CC2C3CC(F)C4=CC(=O)C=CC4(C)C3(F)C(O)CC2(C)C1(O)C(=O)CO (centres undefined)	> 100 µM (inactive)		> 100 µM (inactive)	> 100 µM (inactive)	> 100 µM (inactive)	> 100 µM (inactive)	> 100 µM (inactive)	> 10 µM (inactive)	> 100 µM (inactive)	> 100 µM (inactive)	> 100 µM (inactive)	> 100 µM (inactive)	> 100 µM (inactive)	> 100 µM (inactive)	> 100 µM (inactive)	> 100 µM (inactive)	> 100 µM (inactive)	> 100 µM (inactive)	> 100 µM (inactive)
CC(=O)NC1=C(NCCC(C)C)C(=O)c2ccccc2C1=O	> 50 µM (inactive)		> 50 µM (inactive)	> 50 µM (inactive)	> 50 µM (inactive)	45.9 µM (inactive)	> 50 µM (inactive)			> 50 µM (inactive)	> 50 µM (inactive)	> 50 µM (inactive)	> 50 µM (inactive)	> 50 µM (inactive)	> 50 µM (inactive)	> 50 µM (inactive)	> 50 µM (inactive)	> 50 µM (inactive)	
COC1(OC)CCCCC2c3cccc(OC(C)=O)c3C21OC(C)=O (centres undefined)	> 100 µM (inactive)			> 100 µM (inactive)	> 100 µM (inactive)	> 100 µM (inactive)	> 100 µM (inactive)	> 100 µM (inactive)	54 µM (inactive)	> 10 µM (inactive)	> 100 µM (inactive)	> 100 µM (inactive)	> 100 µM (inactive)	> 100 µM (inactive)	> 100 µM (inactive)			> 100 µM (inactive)	
COC(=O)C1=CC2OC1(C)C1(CC1)C2=O (centres undefined)	17.9 µM (inactive)		> 100 µM (inactive)	22 µM (inactive)	14.7 µM (inactive)	11.7 µM (inactive)	> 10 µM (inactive)	23.8 µM (inactive)	6.85 µM (inactive)	22.6 µM (inactive)	> 10 µM (inactive)	> 10 µM (inactive)	20.6 µM (inactive)	19 µM (inactive)	12.9 µM (inactive)	15.5 µM (inactive)		20.3 µM (inactive)	16 µM (inactive)
COC(=O)c1c/c(=N\NC(=O)CC(=O)Nc2ccccc2OC)c2ccccc2o1	> 100 µM (inactive)	> 100 µM (inactive)	> 100 µM (inactive)	> 100 µM (inactive)	> 100 µM (inactive)		> 100 µM (inactive)	> 100 µM (inactive)	> 100 µM (inactive)	76 µM (inactive)	91.8 µM (inactive)	> 100 µM (inactive)	> 100 µM (inactive)		> 100 µM (inactive)			> 100 µM (inactive)	> 100 µM (inactive)
COc1ccc(/C=c2/sc3n(c2=O)NC2(CCCCC2)NN=3)cc1	> 100 µM (inactive)		> 10 µM (inactive)	> 100 µM (inactive)	> 100 µM (inactive)	> 100 µM (inactive)	> 100 µM (inactive)	> 100 µM (inactive)		> 100 µM (inactive)	> 100 µM (inactive)	> 100 µM (inactive)	> 100 µM (inactive)	> 100 µM (inactive)	> 100 µM (inactive)	> 100 µM (inactive)	> 100 µM (inactive)	> 100 µM (inactive)	> 100 µM (inactive)
CC1(C)CC(=O)C(=[N+]=[N-])C(=O)C1	> 100 µM (inactive)			> 100 µM (inactive)	> 100 µM (inactive)	> 100 µM (inactive)	> 100 µM (inactive)	> 100 µM (inactive)	> 100 µM (inactive)			> 100 µM (inactive)	> 100 µM (inactive)	> 100 µM (inactive)	> 100 µM (inactive)	> 100 µM (inactive)	> 100 µM (inactive)	> 100 µM (inactive)	> 100 µM (inactive)
CCOC(=O)C(C)(C)Oc1ccc2c(=O)cc(-c3ccccc3)oc2c1	29.5 µM (inactive)	> 100 µM (inactive)	18.2 µM (inactive)	18.6 µM (inactive)	22.8 µM (inactive)	22.9 µM (inactive)	16.9 µM (inactive)	> 100 µM (inactive)	14.1 µM (inactive)	27.7 µM (inactive)	14.8 µM (inactive)	> 100 µM (inactive)	18.9 µM (inactive)	26.5 µM (inactive)		21.2 µM (inactive)		22.3 µM (inactive)	
O=C(CCC(=O)C1Cc2ccccc2C1=O)Nc1cccc(C(F)(F)F)c1 (centres undefined)	> 100 µM (inactive)		> 100 µM (inactive)	> 100 µM (inactive)	> 100 µM (inactive)	> 100 µM (inactive)	> 100 µM (inactive)	> 100 µM (inactive)		> 100 µM (inactive)	> 100 µM (inactive)	> 100 µM (inactive)	> 100 µM (inactive)	> 100 µM (inactive)	> 100 µM (inactive)	> 100 µM (inactive)	> 100 µM (inactive)	> 100 µM (inactive)	> 100 µM (inactive)
N#Cc1ccc(OCCSCCCCCCCCCCSCCOc2ccc(C#N)cc2)cc1	> 100 µM (inactive)	> 100 µM (inactive)	> 100 µM (inactive)	> 100 µM (inactive)	> 100 µM (inactive)	> 100 µM (inactive)	> 100 µM (inactive)	> 100 µM (inactive)	> 100 µM (inactive)	> 100 µM (inactive)	3.03 µM (inactive)	> 100 µM (inactive)	> 100 µM (inactive)	22.6 µM (inactive)		> 100 µM (inactive)		> 100 µM (inactive)	
